# Experimental data: US20220395465A1, “STING AGONIST COMPRISING EXOSOMES COMBINED WITH IL-12 DISPLAYING EXOSOMES FOR TREATING A TUMOUR” (CODIAK BIOSCIENCES, INC., priority 2019, published 2022)
# Test system: MC38 tumor
# Assay: MC38 mouse tumor model, tumor growth, complete responses and rechallenge
# Type: in vivo, mice
# Details: equivalent IL-12 dose
# Procedure: Potency was assessed in vitro using human PBMCs or murine splenocytes and in vivo using mouse subcutaneous tumor models. Local versus systemic pharmacology was determined with intratumoral injection in mice and subcutaneous injection in monkeys. All studies were benchmarked against recombinant IL-12 (rIL-12).
# In addition, exoIL-12 administration led to enhanced intratumoral IFN-gamma AUC by about 4-fold as compared to recombinant IL-12 (FIG. 7B). […] This correlated with dose-dependent increases in tumor antigen-specific CD8+ T cells, which increased nearly 4-fold in exoIL-12 treated mice (FIG. 7E).
# Suppression of tumor growth was again observed following MC38 rechallenge (FIG. 7D).
substance,measurement,value
"rIL-12: recombinant IL-12, benchmark in all studies",complete responses (share of mice),0%
